Source: patent publication US10807976B2, “Quinolinone five-membered heterocyclic compounds as mutant-isocitrate dehydrogenase inhibitors” (FORMA Therapeutics, Inc., priority 2015, dated 2020)
pIC50: −log10 of the molar value.

Molecular target: IDH1-R132H recombinant protein (Homo sapiens, UniProt O75874, R132H)
Test: IDH1-R132H enzymatic assay (diaphorase/resazurin, NADPH consumption)
Assay type: biochemical
Conditions: 30 nM IDH1-R132H, inhibition of NADPH consumption; read-out: Enzyme IDH1 R132H IC50
Experimental: Example 26—IDH1-R132H and IDH1-R132C Enzymatic Assay
Assays were performed in a 384-well black plate. An aliquot of 250 nL of compound was incubated with 10 μL of 30 nM IDH1-R132H or 10 nM IDH1-R132C recombinant protein in assay buffer (50 mM Tris pH=7.5, 150 mM NaCl, 5 mM MgCl2, 0.1% (w/v) Bovine Serum Albumin, and 0.01% Triton X-100) in each well at 25° C. for 15 minutes. After the plate was centrifuged briefly, an aliquot of 10 μL of 2 mM α-ketoglutarate and 20 μM NADPH solution prepared in assay buffer was then added to each well and the reaction was maintained at 25° C. for 45 minutes. An aliquot of 10 μL of diaphorase solution (0.15 U/mL diaphorase and 30 μM Resazurin in assay buffer) was added to each well. The plate was maintained at 25° C. for 15 minutes and then read on a plate reader with excitation and emission wavelengths at 535 nm and 590 nm, respectively. The IC50 of a given compound was calculated by fitting the dose response curve of inhibition of NADPH consumption at a given concentration with the four parameter logistic equation.

Sequence of IDH1-R132H recombinant protein (O75874 whole entry R132H): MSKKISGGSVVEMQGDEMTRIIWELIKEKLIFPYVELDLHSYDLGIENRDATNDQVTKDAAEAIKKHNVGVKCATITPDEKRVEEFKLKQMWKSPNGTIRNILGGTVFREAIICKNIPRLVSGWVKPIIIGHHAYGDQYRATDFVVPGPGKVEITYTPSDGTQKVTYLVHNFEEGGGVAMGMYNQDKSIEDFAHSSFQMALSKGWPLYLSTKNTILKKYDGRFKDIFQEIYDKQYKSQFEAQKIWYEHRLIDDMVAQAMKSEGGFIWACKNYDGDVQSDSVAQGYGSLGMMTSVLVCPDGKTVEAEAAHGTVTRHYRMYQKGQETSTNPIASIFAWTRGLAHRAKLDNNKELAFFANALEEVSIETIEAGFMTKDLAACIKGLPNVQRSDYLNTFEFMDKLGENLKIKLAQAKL

pIC50: < 5.00
Substance: 6-chloro-3-[(1S)-1-{[5-(2-oxo-1,3-oxazolidin-3-yl)-1,2,4-thiadiazol-3-yl]amino}ethyl]-1,2-dihydroquinolin-2-one [Compound I-12]
